Assay results as given in ChEMBL document CHEMBL5465560, “Selectivity Literature for EUbOPEN Chemogenomic Library” (2024).

Experiments:
[1] = target: Ribosomal protein S6 kinase alpha-4 (Homo sapiens) (UniProt O75676); assay: Selectivity interaction (Kinase panel (KiNativ target engagement assay in Jurkat cells)) EUB0001635a RPS6KA4; format: cell-based; settings: Selectivity number of off-targets 0.0, Selectivity number of targets 233.0, Source Knowledge https://www.sciencedirect.com/science/article/pii/S2451945619300674?via%3Dihub, at 1 µM
Sequence of Ribosomal protein S6 kinase alpha-4 (Homo sapiens) (O75676 whole entry, looked up): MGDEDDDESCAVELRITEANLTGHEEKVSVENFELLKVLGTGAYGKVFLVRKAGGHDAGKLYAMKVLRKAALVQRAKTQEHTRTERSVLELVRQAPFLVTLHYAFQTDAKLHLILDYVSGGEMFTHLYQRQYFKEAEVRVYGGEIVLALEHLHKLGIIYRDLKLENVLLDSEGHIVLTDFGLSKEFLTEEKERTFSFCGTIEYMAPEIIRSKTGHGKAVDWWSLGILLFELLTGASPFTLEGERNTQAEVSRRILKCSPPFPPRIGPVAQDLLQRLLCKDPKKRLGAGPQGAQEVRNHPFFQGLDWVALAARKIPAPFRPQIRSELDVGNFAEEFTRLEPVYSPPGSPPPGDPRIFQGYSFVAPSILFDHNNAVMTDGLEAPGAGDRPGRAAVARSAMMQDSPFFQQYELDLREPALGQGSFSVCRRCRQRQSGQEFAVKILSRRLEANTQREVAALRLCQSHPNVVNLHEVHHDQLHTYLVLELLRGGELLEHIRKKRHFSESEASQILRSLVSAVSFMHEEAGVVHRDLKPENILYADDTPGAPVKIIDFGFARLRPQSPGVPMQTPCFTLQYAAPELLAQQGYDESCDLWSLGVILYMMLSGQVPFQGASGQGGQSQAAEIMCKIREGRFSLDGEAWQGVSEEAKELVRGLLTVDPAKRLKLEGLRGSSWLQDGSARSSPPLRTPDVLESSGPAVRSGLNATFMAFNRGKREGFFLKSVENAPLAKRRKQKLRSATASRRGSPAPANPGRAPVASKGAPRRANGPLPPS

Insulin receptor = Insulin receptor (Homo sapiens, UniProt P06213); assay: Selectivity interaction (KinomeScan (DiscoverX)) EUB0000229b INSR; settings: at 10 µM
Sequence of Insulin receptor (P06213 28-758 limits assumed): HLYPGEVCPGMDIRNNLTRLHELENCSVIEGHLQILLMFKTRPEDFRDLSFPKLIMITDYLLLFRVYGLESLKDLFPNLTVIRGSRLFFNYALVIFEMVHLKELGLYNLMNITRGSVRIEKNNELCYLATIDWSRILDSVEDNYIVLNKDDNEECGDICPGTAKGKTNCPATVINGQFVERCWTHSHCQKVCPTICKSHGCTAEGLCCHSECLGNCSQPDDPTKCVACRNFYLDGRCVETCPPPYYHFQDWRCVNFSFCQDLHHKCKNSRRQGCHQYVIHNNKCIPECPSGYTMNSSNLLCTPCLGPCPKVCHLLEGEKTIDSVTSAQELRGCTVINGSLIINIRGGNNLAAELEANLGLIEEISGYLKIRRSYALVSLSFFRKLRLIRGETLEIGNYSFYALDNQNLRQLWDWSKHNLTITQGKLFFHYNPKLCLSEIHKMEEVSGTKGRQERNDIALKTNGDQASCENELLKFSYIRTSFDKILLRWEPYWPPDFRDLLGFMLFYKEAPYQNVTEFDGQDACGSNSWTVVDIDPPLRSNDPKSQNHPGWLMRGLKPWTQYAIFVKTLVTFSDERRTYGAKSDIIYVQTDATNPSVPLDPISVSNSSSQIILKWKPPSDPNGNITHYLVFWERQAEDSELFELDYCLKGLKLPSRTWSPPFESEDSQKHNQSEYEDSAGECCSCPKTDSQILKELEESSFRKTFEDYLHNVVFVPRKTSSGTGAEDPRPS
Sequence of Insulin receptor (P06213 763-1382 limits assumed): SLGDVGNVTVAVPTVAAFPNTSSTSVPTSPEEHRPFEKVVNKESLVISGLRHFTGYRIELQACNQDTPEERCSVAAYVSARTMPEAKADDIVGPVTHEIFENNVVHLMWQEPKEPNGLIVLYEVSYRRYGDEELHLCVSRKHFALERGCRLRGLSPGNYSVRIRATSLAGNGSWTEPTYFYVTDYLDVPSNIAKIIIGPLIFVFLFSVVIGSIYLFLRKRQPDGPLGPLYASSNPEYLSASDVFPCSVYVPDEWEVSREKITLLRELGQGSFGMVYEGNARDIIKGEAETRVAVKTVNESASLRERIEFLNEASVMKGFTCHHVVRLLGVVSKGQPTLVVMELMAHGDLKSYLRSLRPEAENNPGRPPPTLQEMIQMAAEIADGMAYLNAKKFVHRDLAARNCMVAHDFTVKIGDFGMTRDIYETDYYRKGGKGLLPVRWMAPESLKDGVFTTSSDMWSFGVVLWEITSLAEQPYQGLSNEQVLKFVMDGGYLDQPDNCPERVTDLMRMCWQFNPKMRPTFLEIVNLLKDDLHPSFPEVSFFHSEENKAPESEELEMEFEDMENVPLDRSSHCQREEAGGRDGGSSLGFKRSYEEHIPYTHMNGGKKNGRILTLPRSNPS

[2] = target: T1, Serine/threonine-protein kinase D1 (Homo sapiens) (UniProt Q15139); assay: Selectivity interaction (KinomeScan (DiscoverX)) EUB0000045b PRKD1
T1 sequence (whole entry): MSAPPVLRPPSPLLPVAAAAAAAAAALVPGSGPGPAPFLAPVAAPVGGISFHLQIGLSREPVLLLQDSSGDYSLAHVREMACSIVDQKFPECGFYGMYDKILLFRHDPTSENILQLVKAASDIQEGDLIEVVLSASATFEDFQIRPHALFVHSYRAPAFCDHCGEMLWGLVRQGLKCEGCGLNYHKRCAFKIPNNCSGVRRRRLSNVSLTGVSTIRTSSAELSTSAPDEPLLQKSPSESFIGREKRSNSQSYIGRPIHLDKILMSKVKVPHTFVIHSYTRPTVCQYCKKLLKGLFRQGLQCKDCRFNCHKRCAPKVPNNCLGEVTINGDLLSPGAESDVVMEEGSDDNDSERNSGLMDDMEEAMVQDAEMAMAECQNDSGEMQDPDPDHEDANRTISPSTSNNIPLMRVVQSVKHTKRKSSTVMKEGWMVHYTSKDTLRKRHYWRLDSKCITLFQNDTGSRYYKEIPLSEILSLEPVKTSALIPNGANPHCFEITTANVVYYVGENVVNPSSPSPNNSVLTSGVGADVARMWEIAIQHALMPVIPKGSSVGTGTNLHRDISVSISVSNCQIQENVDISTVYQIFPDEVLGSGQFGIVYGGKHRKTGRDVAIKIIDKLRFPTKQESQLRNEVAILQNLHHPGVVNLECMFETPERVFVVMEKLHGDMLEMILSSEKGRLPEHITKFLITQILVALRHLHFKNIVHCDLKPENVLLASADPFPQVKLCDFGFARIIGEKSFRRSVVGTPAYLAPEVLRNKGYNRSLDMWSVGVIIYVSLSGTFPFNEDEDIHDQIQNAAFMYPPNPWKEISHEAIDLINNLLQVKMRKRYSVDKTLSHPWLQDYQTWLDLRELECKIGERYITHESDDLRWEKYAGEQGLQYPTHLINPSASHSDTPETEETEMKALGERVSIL

[3] = target: Protein-tyrosine kinase 6 (Homo sapiens, UniProt Q13882); assay: Selectivity interaction (KinomeScan (DiscoverX)) EUB0001049a PTK6; settings: at 1 µM
Sequence of Protein-tyrosine kinase 6 (Q13882 whole entry, looked up): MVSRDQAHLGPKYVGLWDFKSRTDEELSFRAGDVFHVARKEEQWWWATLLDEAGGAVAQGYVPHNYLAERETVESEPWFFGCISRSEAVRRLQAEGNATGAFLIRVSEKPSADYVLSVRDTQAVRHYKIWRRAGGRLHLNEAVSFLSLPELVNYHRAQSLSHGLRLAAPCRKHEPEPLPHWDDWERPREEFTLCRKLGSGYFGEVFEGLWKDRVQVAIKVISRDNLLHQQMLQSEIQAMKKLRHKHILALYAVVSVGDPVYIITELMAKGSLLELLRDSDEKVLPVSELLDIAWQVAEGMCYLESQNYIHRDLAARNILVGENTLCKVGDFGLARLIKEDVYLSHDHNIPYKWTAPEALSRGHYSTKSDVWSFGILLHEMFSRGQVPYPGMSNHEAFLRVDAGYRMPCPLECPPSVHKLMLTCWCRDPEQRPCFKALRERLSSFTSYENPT

[4] = target: Leucine-rich repeat serine/threonine-protein kinase 2 (Homo sapiens, UniProt Q5S007); settings: PBMC, at 1 µM
[5] = target: T2, Mitogen-activated protein kinase kinase kinase kinase 2 (Homo sapiens) (UniProt Q12851); assay: Selectivity interaction (ActivX KiNativ screen (kinase selectivity in THP-1 cell lysates)) EUB0000639a MAP4K2; format: subcellular; settings: lysate, at 0.01 µM
T2 sequence (whole entry): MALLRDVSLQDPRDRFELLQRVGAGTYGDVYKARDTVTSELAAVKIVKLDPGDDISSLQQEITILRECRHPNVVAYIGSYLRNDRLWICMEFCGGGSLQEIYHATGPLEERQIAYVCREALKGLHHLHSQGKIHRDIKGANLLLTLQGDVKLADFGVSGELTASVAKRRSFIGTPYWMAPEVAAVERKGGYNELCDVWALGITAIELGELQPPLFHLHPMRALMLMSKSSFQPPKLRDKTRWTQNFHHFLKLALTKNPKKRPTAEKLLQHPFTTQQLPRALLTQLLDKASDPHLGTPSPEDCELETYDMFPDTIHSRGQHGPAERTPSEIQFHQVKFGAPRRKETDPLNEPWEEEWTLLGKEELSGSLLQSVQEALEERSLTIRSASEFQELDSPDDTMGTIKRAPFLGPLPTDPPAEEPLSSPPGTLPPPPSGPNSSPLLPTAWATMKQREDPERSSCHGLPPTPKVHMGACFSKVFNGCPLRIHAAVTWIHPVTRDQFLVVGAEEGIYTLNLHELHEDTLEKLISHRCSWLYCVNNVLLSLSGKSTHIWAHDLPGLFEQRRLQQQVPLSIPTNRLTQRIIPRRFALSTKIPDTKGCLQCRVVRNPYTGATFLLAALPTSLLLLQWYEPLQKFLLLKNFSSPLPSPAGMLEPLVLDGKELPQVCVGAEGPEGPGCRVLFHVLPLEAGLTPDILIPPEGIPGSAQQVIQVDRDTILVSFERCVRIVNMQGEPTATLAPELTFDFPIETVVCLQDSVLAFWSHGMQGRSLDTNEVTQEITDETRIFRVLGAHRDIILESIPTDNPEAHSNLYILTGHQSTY

[6] = target: T3, Ankyrin repeat and protein kinase domain-containing protein 1 (Homo sapiens) (UniProt Q8NFD2); assay: Selectivity interaction (KinomeScan (DiscoverX)) EUB0000655a ANKK1; settings: at 10 µM
T3 sequence (whole entry): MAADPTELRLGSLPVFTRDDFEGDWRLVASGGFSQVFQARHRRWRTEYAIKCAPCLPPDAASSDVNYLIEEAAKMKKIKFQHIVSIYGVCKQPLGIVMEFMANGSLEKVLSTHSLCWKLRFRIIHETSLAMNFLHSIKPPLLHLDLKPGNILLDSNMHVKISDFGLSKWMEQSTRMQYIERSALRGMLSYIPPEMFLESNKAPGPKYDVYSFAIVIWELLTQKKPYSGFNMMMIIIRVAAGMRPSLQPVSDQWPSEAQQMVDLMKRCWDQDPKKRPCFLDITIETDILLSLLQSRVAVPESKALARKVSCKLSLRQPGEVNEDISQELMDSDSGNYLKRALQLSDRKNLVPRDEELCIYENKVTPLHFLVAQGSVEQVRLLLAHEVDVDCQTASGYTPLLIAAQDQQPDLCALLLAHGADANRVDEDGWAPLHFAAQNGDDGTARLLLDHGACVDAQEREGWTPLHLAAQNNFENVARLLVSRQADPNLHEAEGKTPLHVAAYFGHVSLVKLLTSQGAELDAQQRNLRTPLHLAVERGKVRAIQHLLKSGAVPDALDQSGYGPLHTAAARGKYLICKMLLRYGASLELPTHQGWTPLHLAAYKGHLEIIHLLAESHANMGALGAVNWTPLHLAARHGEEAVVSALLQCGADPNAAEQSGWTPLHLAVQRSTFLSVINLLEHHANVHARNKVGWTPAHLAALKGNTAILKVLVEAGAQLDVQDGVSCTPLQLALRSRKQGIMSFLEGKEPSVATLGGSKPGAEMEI

[7] = target: Cyclin-dependent kinase 7 (Homo sapiens, UniProt P50613); assay: Selectivity interaction (Ambit KINOMEscan and KiNATiv profiling in Jurkat cells) EUB0000090b CDK7; format: cell-based; settings: at 1 µM
Sequence of Cyclin-dependent kinase 7 (P50613 whole entry): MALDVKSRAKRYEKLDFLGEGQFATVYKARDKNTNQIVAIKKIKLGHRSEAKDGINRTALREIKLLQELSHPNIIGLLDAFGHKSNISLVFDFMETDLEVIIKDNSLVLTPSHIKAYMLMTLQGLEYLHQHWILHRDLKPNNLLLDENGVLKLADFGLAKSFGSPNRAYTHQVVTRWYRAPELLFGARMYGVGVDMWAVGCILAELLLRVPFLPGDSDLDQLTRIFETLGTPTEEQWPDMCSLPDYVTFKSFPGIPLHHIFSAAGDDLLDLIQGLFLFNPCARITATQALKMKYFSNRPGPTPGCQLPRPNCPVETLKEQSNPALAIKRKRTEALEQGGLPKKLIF

C=CC(=O)Nc1ccc(C(=O)Nc2[nH]nc3c2CN(C(=O)N[C@H](CN(C)C)c2ccccc2)C3(C)C)cc1
% of engagement [1]: -6.3%

COc1cc(N(C)c2ccnc3ccc(C(F)(F)F)cc23)cc(OC)c1OC
% binding (Insulin receptor): 100%

C=CC(=O)Nc1cc(-n2c(=O)ccc3cnc4ccc(-c5ccc(NS(C)(=O)=O)cc5)cc4c32)ccc1C
% of control ([2]; at 1 µM): 100%
% of control ([2]; at 10 µM): 84%

COc1cc(Nc2nc(C)cc(-c3cnn4nc(OC)ccc34)n2)cc(C(F)(F)F)c1
% of control [3]: 100%

N#Cc1cccc(-c2c[nH]c3ncnc(N4CCOCC4)c23)c1
% of inhibition [4]: 94%

CC[C@@H]1[C@H](F)C(=O)N[C@@H]1COc1nccc2cc(C(N)=O)c(OC)cc12 [ZIMLOVISERTIB]
% of inhibition [5]: 13.3%

CN(C)CCOc1ccc(-c2nc(-c3ccncc3)c(-c3ccc4c(c3)CC/C4=N\O)[nH]2)cc1
% of control [6]: 100%

CN(C)C/C=C/C(=O)Nc1ccc(C(=O)N2CCCC(Nc3ncc(Cl)c(-c4c[nH]c5ccccc45)n3)C2)cc1 (centres undefined)
% of control [7]: 28%
